ChEMBL document CHEMBL5726960, “Inhibiting neurotransmitter reuptake” (2018)

What was measured:
[1] = biological target: Sodium-dependent noradrenaline transporter (Homo sapiens, UniProt P23975); test: (§1) On the day of the experiment, the cells were removed from −80° C. or liquid nitrogen and thawed in a room temperature water bath. The cells were dilute to about 1-2E+06 with Freestyle medium. A 1 mL sample (1:2 dilution) was prepared, and the cells were counted. The cells were spun at 1100 rpm for 5 minutes, and the medium was aspirated off. The cells were resuspend in medium at 1.5E+06 cells/mL for about 60,000 cells per well. 40 μL of cells were dispensed per well in the Biocoat plates. The plates were spun at 1100 rpm for 1 minute to improve homogeneity of the cell layer and were incubated at 37° C. for a minimum of 3 hours.; type: cell-based
[2] = biological target: Sodium-dependent dopamine transporter (Homo sapiens, UniProt Q01959); test: as §1, with “plates. […]” for “plates.”, “neurotransmitter transporter dye was prepared in AB prior” for “plates were spun at 1100 rpm for 1 minute”, “use.” for “improve homogeneity of the cell layer and were incubated at 37° C. for a minimum of 3 hours.”; type: cell-based
Sodium-dependent dopamine transporter, sequence (Q01959 whole entry): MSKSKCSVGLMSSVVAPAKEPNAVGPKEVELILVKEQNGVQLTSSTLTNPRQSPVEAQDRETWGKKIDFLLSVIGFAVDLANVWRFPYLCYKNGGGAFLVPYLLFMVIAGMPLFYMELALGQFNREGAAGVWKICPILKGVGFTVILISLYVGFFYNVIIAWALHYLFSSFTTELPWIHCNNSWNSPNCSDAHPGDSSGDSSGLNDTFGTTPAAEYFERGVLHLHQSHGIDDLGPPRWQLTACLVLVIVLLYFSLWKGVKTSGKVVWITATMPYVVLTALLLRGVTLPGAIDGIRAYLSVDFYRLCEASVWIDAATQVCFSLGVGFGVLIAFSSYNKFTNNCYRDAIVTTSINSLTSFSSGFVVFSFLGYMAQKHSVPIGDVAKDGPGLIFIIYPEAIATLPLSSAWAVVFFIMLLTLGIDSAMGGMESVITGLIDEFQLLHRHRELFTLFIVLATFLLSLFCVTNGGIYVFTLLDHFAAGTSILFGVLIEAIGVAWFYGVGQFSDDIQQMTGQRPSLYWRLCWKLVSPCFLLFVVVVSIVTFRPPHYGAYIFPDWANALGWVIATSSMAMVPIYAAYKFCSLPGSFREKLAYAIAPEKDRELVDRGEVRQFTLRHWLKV

Sodium-dependent noradrenaline transporter, sequence (P23975 whole entry): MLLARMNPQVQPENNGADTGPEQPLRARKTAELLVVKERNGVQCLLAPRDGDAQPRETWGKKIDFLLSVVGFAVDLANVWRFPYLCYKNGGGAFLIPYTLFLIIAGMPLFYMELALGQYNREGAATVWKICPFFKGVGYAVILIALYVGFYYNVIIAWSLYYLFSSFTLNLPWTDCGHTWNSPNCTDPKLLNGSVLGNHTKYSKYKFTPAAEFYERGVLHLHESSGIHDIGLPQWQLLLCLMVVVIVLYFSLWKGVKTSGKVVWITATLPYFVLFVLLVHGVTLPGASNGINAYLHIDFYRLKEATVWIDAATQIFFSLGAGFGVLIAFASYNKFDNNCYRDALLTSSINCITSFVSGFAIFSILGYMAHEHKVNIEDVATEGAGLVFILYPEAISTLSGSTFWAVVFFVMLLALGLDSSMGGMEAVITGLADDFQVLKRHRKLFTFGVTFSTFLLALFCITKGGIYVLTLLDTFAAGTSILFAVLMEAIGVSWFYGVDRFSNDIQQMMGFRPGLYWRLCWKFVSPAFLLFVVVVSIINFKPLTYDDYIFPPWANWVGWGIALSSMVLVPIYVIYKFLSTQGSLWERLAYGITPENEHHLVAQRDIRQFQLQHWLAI

## CNCC(c1ccc(F)c(Cl)c1)[C@H](O)c1ccccc1 (some centres not stated)
[1]
  Ki: 10.2 nM
[2]
  Ki: 56.6 nM
